In patent publication US12642856B2, “Degraders of hepatitis C virus NS3/4A protein” (DANA-FARBER CANCER INSTITUTE, INC., priority 2018, dated 2026):
Read-outs that look alike come from different tables or passages of the source.

What was measured:
HCV NS3 fusion protein = target: T1, HCV NS3 fusion protein (UniProt P27958+Q96SW2); assay: NS3 degradation competition assay with lenalidomide; type: cell-based, Hepatitis C virus; conditions: Western blot; for effect of lenalidomide on compound-induced degradation of NS3: excess of cereblon ligand lenalidomide
T1 construct: expressing the full-length HCV NS3 protein fused to eGFP; mCherry via FMVD 2A self-cleavage linker (C, cleaved yes); expressed in transfected cells
Source text: The expression of the NS3 fusion protein was induced prior to the treatment of the NS3 expressing cells with an excess of the cereblon ligand lenalidomide.
FIG. 3 is a photograph of a Western blot showing degradation of HCV NS3 in the absence and presence of lenalidomide.

[1] = tested on: HCV subgenomic replicon in Huh7.5 cells; assay: Antiviral subgenomic replicon assay; type: cell-based; conditions: Hepatitis C virus, read-out: IC50, 50% reduction in reporter (luciferase) expression levels
Experimental: (§1) The antiviral activity of the degraders was evaluated in cell culture in a subgenomic replicon assay and an infectious assay. In the subgenomic replicon assay, the hepatoma cell line Huh7.5 was transfected with a HCV subgenomic replicon and treated with small molecules. The luciferase activity encoded by the subgenomic replicon served as a measure for viral replication. In the infectious assay, Huh7.5 cells were infected with HCV, and treated with small molecules. The amount of infectious virus released to the supernatants after treatment with the small molecule degraders served as a measure for their antiviral activity. […] The activity of the compounds described herein is dependent on protein degradation mediated by the cereblon E3 ligase, as HCV NS3 levels are partially rescued in the cereblon-deficient Huh7.5 cell line.
Huh7.5 cells were electroporated with the HCV subgenomic replicon and treated after 24 hours with a range of small molecule concentrations. The luciferase activity encoded by the replicon was measured in cells at 48 hours post-electroporation/24 hours post-treatment. The concentration of compound that led to a 50% reduction in reporter expression levels (IC50) was determined by non-linear regression.

[2] = target: T2, full-length HCV NS3 protein fused to eGFP (UniProt P27958+Q96SW2); assay: Transient cellular HCV NS3 degradation assay; type: cell-based, Hepatitis C virus; conditions: for degradation of HCV NS3 by Western blot: 4-hour and 24-hour treatments, NS3-eGFP and NS3-eGFP-mCherry fusion proteins; for DC50: read-out: IC50, concentration that led to a 50% reduction in NS3-eGFP accumulation, flow cytometry; for DC50 / degradation of transiently expressed HCV NS3 (decrease in NS3-eGFP abundance): 4 hour treatment; for degradation of transiently expressed HCV NS3 (decrease in NS3-eGFP abundance): increasing concentrations
T2 construct: expressing the full-length HCV NS3 protein fused to eGFP; mCherry via FMVD 2A self-cleavage linker (C, cleaved yes); expressed in transfected cells
Source text: A system was set up to monitor NS3 degradation in the absence of other processes of the infectious viral cycle. […] Expressed in the absence of its cofactor, NS4A, the NS3 protein lacks any enzymatic activity, and the abundance of the NS3-eGFP fusion protein can be reliably monitored by eGFP fluorescence. Since the mCherry portion of the fusion protein is cleaved off during translation, its abundance in cells is not affected by small molecule-induced degradation of NS3-eGFP, and thus it serves as a control for protein expression. […]
The NS3 expressing cells were treated with increasing concentrations of compounds 13 and 22 for 4 hours. […] Compound 11 is an alpha-hydroxylamide analog of compound 13 that cannot form a covalent bond with the catalytic serine of the HCV NS3/4A protease due to a modification of the α-ketoamide group. […] The NS3 expressing cells were treated with increasing concentrations of compounds for 4 hours.

HCV in Huh7.5 cells = assay: Antiviral infectious assay (TCID50); type: cell-based, Hepatitis C virus; conditions: for IC50: Hepatitis C virus, read-out: IC50, 50% reduction in viral titers
Experimental: as §1
Huh7.5 cells were infected with HCV and treated after 24 hours with a range of small molecule concentrations. The amount of infectious virus released to the supernatants at 48 hours post-infection/24 hours post-treatment was measured using a 50% tissue infectious dose (TCID50) assay. The concentration of compound that led to a 50% reduction in viral titers (IC50) was determined by non-linear regression.

HCV(NS3-V55A) = assay: Viral resistance assay, HCV(NS3-V55A); type: cell-based, Hepatitis C virus
Experimental: (§2) Mutations A156S and V55A, two well-characterized resistance mutations that are located in the active site of the HCV NS3 protease where telaprevir binds, were selected. Infectious HCV clones bearing the NS3-V55A mutation or the NS3-A156S mutation were generated.
(§3) Huh7.5 cells were infected with wildtype HCV, or the telaprevir-resistant mutant viruses, HCV(NS3-V55A) and HCV(NS3-A156S). Cells were treated 24 hours after infection with a range of small molecule concentrations. The amount of infectious virus released to the supernatants at 48 hours post-infection/24 hours post-treatment was measured using a 50% tissue infectious dose (TCID50) assay. The concentration of compound that led to a 50% reduction in viral titers (IC50) was determined by non-linear regression.

wildtype HCV = assay: Viral resistance assay, wildtype HCV; type: cell-based; conditions: Hepatitis C virus, Huh7.5, read-out: IC50, 50% reduction in viral titers
Experimental: as §2, §3

HCV(NS3-A156S) = assay: Viral resistance assay, HCV(NS3-A156S); type: cell-based, Hepatitis C virus
Experimental: as §2, §3

[3] = Huh7.5 cells, 48 hours post-electroporation/24 hours post-treatment
[4] = Huh7.5 cells, 48 hours post-infection/24 hours post-treatment, TCID50

CCC[C@H](NC(=O)[C@@H]1[C@H]2CCC[C@H]2CN1C(=O)[C@@H](NC(=O)[C@@H](NC(=O)c1cnc(C(=O)NCCCCCCNc2cccc3c2CN(C2CCC(=O)NC2=O)C3=O)cn1)C1CCCCC1)C(C)(C)C)C(=O)C(=O)NC1CC1 (stereo partly drawn) [Compound 1, N2-((S)-1-cyclohexyl-2-((S)-1-((1S,3aR,6aS)-1-((S)-1-(cyclopropylamino)-1,2-dioxohexan-3-ylcarbamoyl)hexahydrocyclopenta[c]pyrrol-2(1H)-yl)-3,3-dimethyl-1-oxobutan-2-ylamino)-2-oxoethyl)-N5-(6-(2-(2,6-dioxopiperidin-3-yl)-1-oxoisoindolin-4-ylamino)hexyl)pyrazine-2,5-dicarboxamide]
effect of lenalidomide on compound-induced degradation of NS3 (HCV NS3 fusion protein): Lenalidomide inhibited degradation of NS3
IC50 ([1]; Huh7.5, 48 h): 3040 nM
degradation of HCV NS3 by Western blot [2]: specific reduction in steady-state abundance
DC50 [2]: 669 nM

CCC[C@H](NC(=O)[C@@H]1[C@H]2CCC[C@H]2CN1C(=O)[C@@H](NC(=O)[C@@H](NC(=O)c1cnc(C(=O)NCCOCCOCCNc2cccc3c2C(=O)N(C2CCC(=O)NC2=O)C3=O)cn1)C1CCCCC1)C(C)(C)C)C(=O)C(=O)NC1CC1 (stereo partly drawn) [Compound 3, N2-((S)-1-cyclohexyl-2-((S)-1-((1S,3aR,6aS)-1-((S)-1-(cyclopropylamino)-1,2-dioxohexan-3-ylcarbamoyl)hexahydrocyclopenta[c]pyrrol-2(1H)-yl)-3,3-dimethyl-1-oxobutan-2-ylamino)-2-oxoethyl)-N5-(2-(2-(2-(2-(2,6-dioxopiperidin-3-yl)-1,3-dioxoisoindolin-4-ylamino)ethoxy)ethoxy)ethyl)pyrazine-2,5-dicarboxamide]
effect of lenalidomide on compound-induced degradation of NS3 (HCV NS3 fusion protein): Lenalidomide inhibited degradation of NS3
IC50 [1, 3]: 2620 nM
IC50 (HCV in Huh7.5 cells; [4]): 2920 nM
degradation of HCV NS3 by Western blot [2]: specific reduction in steady-state abundance

CCC[C@H](NC(=O)[C@@H]1[C@H]2CCC[C@H]2CN1C(=O)[C@@H](NC(=O)[C@@H](NC(=O)c1cnc(C(=O)NCCCCCCCC(=O)Nc2cccc3c2CN(C2CCC(=O)NC2=O)C3=O)cn1)C1CCCCC1)C(C)(C)C)C(=O)C(=O)NC1CC1 (stereo partly drawn) [Compound 4, N2-((S)-1-cyclohexyl-2-((S)-1-((1S,3aR,6aS)-1-((S)-1-(cyclopropylamino)-1,2-dioxohexan-3-ylcarbamoyl)hexahydrocyclopenta[c]pyrrol-2(1H)-yl)-3,3-dimethyl-1-oxobutan-2-ylamino)-2-oxoethyl)-N5-(8-(2-(2,6-dioxopiperidin-3-yl)-1-oxoisoindolin-4-ylamino)-8-oxooctyl)pyrazine-2,5-dicarboxamide]
effect of lenalidomide on compound-induced degradation of NS3 (HCV NS3 fusion protein): Lenalidomide inhibited degradation of NS3
IC50 [1, 3]: 1320 nM
degradation of HCV NS3 by Western blot [2]: specific reduction in steady-state abundance
DC50 [2]: 2680 nM

CCC[C@H](NC(=O)[C@@H]1[C@H]2CCC[C@H]2CN1C(=O)[C@@H](NC(=O)[C@@H](NC(=O)c1cnc(C(=O)NCCOCCOCCNc2cccc3c2C(=O)N(C2CCC(=O)NC2=O)C3=O)cn1)C1CCCCC1)C(C)(C)C)C(O)C(=O)NC1CC1 (stereo partly drawn) [Compound 11, N2-((1S)-1-cyclohexyl-2-((2S)-1-((1S,3aR,6aS)-1-((3S)-1-(cyclopropylamino)-2-hydroxy-1-oxohexan-3-ylcarbamoyl)hexahydrocyclopenta[c]pyrrol-2(1H)-yl)-3,3-dimethyl-1-oxobutan-2-ylamino)-2-oxoethyl)-N5-(2-(2-(2-(2-(2,6-dioxopiperidin-3-yl)-1,3-dioxoisoindolin-4-ylamino)ethoxy)ethoxy)ethyl)pyrazine-2,5-dicarboxamide]
degradation of transiently expressed HCV NS3 (decrease in NS3-eGFP abundance) [2]: did not mediate degradation

CCC[C@H](NC(=O)[C@@H]1[C@H]2CCC[C@H]2CN1C(=O)[C@@H](NC(=O)[C@@H](NC(=O)c1cnc(C(=O)NCCOCCOCCOc2cc3c4c(cccc4c2)C(=O)N(C2CCC(=O)NC2=O)C3=O)cn1)C1CCCCC1)C(C)(C)C)C(=O)C(=O)NC1CC1 (stereo partly drawn) [Compound 13, N2-((S)-1-cyclohexyl-2-((S)-1-((1S,3aR,6aS)-1-((S)-1-(cyclopropylamino)-1,2-dioxohexan-3-ylcarbamoyl)hexahydrocyclopenta[c]pyrrol-2(1H)-yl)-3,3-dimethyl-1-oxobutan-2-ylamino)-2-oxoethyl)-N5-(2-(2-(2-(2-(2,6-dioxopiperidin-3-yl)-1,3-dioxo-2,3-dihydro-1H-benzo[de]isoquinolin-5-yloxy)ethoxy)ethoxy)ethyl)pyrazine-2,5-dicarboxamide]
effect of lenalidomide on compound-induced degradation of NS3 (HCV NS3 fusion protein): Lenalidomide inhibited degradation of NS3
IC50 (HCV(NS3-V55A); read-out: IC50, 50% reduction in viral titers, HCV(NS3-V55A), Huh7.5, TCID50): 508 nM
IC50 (wildtype HCV): 522 nM
change in antiviral potency, NS3-A156S vs wildtype (HCV(NS3-A156S)): 3 fold
IC50 (HCV(NS3-A156S); read-out: IC50, 50% reduction in viral titers, HCV(NS3-A156S), Huh7.5, TCID50): 1560 nM
IC50 (HCV in Huh7.5 cells; [4]): 744 nM
antiviral activity compared with telaprevir (HCV in Huh7.5 cells; subgenomic replicon and infectious assays, Huh7.5): antiviral potency close to that of the parental compound
DC50 [2]: 50 nM

CCC[C@H](NC(=O)[C@@H]1[C@H]2CCC[C@H]2CN1C(=O)[C@@H](NC(=O)[C@@H](NC(=O)c1cnc(C(=O)NCCOCCOCCNc2cccc3c2C(=O)N(C2CCC(=O)N(C)C2=O)C3=O)cn1)C1CCCCC1)C(C)(C)C)C(=O)C(=O)NC1CC1 (stereo partly shown) [Compound 20]
degradation of NS3 in the presence or absence of lenalidomide (HCV NS3 fusion protein): no significant degradation of NS3

CCC[C@H](NC(=O)[C@@H]1[C@H]2CCC[C@H]2CN1C(=O)[C@@H](NC(=O)[C@@H](NC(=O)c1cnc(C(=O)NCCOCCOCCOc2cc3c4c(cccc4c2)C(=O)N(C2CCC(=O)N(C)C2=O)C3=O)cn1)C1CCCCC1)C(C)(C)C)C(=O)C(=O)NC1CC1 (stereo partly drawn) [Compound 22, N2-((S)-1-cyclohexyl-2-((S)-1-((1S,3aR,6aS)-1-((S)-1-(cyclopropylamino)-1,2-dioxohexan-3-ylcarbamoyl)hexahydrocyclopenta[c]pyrrol-2(1H)-yl)-3,3-dimethyl-1-oxobutan-2-ylamino)-2-oxoethyl)-N5-(2-(2-(2-(2-(1-methyl-2,6-dioxopiperidin-3-yl)-1,3-dioxo-2,3-dihydro-1H-benzo[de]isoquinolin-5-yloxy)ethoxy)ethoxy)ethyl)pyrazine-2,5-dicarboxamide]
degradation of NS3 in the presence or absence of lenalidomide (HCV NS3 fusion protein): no significant degradation of NS3
degradation of transiently expressed HCV NS3 (decrease in NS3-eGFP abundance) [2]: did not degrade HCV NS3
binding to cereblon (concluded from degradation assay) ([2]; N-methylated glutarimide negative controls): unable to bind cereblon

CCC[C@H](NC(=O)[C@@H]1[C@H]2CCC[C@H]2CN1C(=O)[C@@H](NC(=O)[C@@H](NC(=O)c1cnccn1)C1CCCCC1)C(C)(C)C)C(=O)C(=O)NC1CC1 [telaprevir, reference compound]
change in antiviral potency, NS3-V55A vs wildtype (HCV(NS3-V55A)): 3 fold
IC50 (wildtype HCV): 98 nM
IC50 ([1]; Huh7.5, 48 h): 240 nM
change in antiviral potency, NS3-A156S vs wildtype (HCV(NS3-A156S)): 10 fold
IC50 (HCV in Huh7.5 cells; Huh7.5, 48 h): 138 nM
degradation of transiently expressed HCV NS3 (decrease in NS3-eGFP abundance) [2]: not observed
